In patent US20240025884A1 (Dong-A ST Co., Ltd., priority 2022, published 2024):

Biological target: GCN2 (Homo sapiens (Human), UniProt Q9P2K8)
Experiment: GCN2 Biochemical Assay (TR-FRET, GFP-eIF2S1 substrate phosphorylation)
Conditions: read-out: IC50 (GCN2 Inhibitory Activity)
In short: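 In-house GCN2 (1.6 nM 2× stock) phosphorylates GFP-eIF2S1 (50 nM 2× stock) with ATP (0.2 mM 2× stock) and tRNA, pH 7.5, 70 min at room temperature; 10-point 3.16-fold compound series. TR-FRET detection with Tb-anti-phospho antibody, 2–3 h, Ex 340/Em 490/520 nm; artifact plate spiked with phospho-substrate.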

GCN2, sequence (Q9P2K8 whole entry): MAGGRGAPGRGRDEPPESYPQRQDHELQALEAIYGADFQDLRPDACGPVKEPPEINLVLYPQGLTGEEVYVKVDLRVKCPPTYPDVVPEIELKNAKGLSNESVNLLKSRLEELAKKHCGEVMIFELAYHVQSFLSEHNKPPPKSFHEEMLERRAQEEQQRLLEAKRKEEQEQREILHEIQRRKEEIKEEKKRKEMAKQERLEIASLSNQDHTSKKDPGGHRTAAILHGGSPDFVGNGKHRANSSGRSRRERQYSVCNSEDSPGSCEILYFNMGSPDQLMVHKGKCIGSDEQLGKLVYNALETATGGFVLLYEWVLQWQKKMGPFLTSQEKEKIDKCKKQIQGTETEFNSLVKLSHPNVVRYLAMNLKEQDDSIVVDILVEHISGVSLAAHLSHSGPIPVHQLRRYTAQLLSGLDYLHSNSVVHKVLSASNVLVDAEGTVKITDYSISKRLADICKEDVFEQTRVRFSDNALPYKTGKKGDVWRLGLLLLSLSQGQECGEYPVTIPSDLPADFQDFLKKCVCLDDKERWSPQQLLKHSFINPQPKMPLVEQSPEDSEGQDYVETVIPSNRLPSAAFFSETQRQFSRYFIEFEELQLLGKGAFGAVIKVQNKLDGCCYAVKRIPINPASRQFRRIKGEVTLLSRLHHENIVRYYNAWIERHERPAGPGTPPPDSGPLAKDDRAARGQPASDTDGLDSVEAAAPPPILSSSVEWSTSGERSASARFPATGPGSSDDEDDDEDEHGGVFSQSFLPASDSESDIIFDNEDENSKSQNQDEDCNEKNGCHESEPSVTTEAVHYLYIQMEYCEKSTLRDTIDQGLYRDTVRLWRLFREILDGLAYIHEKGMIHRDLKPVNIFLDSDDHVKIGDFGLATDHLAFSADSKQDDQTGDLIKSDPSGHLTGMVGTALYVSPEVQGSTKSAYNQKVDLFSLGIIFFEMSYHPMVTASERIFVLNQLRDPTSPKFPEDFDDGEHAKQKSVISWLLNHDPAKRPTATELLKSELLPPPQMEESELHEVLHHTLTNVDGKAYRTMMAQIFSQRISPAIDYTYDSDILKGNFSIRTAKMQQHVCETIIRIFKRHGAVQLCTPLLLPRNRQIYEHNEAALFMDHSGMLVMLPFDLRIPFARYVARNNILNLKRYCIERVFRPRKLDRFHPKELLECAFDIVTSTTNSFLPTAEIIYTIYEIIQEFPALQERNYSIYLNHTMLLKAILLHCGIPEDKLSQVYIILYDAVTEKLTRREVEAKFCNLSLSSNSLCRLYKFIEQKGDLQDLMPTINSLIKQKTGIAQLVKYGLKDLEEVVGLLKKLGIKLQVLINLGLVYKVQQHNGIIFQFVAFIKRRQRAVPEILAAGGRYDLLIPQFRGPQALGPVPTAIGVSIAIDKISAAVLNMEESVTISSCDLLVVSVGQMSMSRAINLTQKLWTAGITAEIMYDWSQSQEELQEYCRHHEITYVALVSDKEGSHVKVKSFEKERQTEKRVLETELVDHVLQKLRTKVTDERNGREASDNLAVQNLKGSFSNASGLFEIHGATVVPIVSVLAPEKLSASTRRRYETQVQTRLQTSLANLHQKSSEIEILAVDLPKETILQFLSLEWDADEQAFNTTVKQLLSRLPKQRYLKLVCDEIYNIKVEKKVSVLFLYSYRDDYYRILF

IC50 | SMILES
< 10 nM | CCCCNc1nccc(O[C@H]2CCN(CC(=O)Nc3cccc4c(-c5nc(Nc6cc(C)n(C)n6)ncc5C)c[nH]c34)C2)n1 [Example 205, (S)-2-(3-((2-(butylamino)pyrimidin-4-yl)oxy)pyrrolidin-1-yl)-N-(3-(2-((1,5-dimethyl-1H-pyrazol-3-yl)amino)-5-methylpyrimidin-4-yl)-1H-indol-7-yl)acetamide]
< 10 nM | Cc1cnc(Nc2cc(C)n(C)n2)nc1-c1c[nH]c2c(NC(=O)CN3CC[C@H](Oc4ccnc(NCCCO)n4)C3)cccc12 [Example 206, (S)-N-(3-(2-((1,5-dimethyl-1H-pyrazol-3-yl)amino)-5-methylpyrimidin-4-yl)-1H-indol-7-yl)-2-(3-((2-((3-hydroxypropyl)amino)pyrimidin-4-yl)oxy)pyrrolidin-1-yl)acetamide]
< 10 nM | Cc1cnc(Nc2cc(C)n(C)n2)nc1-c1c[nH]c2c(NC(=O)CN3CC[C@H](Oc4ccnc(NC5CC5)n4)C3)cccc12 [Example 207, (S)-2-(3-((2-(cyclopropylamino)pyrimidin-4-yl)oxy)pyrrolidin-1-yl)-N-(3-(2-((1,5-dimethyl-1H-pyrazol-3-yl)amino)-5-methylpyrimidin-4-yl)-1H-indol-7-yl)acetamide]
< 10 nM | Cc1cnc(Nc2cc(C)n(C)n2)nc1-c1c[nH]c2c(NC(=O)CN3CC[C@H](Oc4ccnc(NC5CCC5)n4)C3)cccc12 [Example 208, (S)-2-(3-((2-(cyclobutylamino)pyrimidin-4-yl)oxy)pyrrolidin-1-yl)-N-(3-(2-((1,5-dimethyl-1H-pyrazol-3-yl)amino)-5-methylpyrimidin-4-yl)-1H-indol-7-yl)acetamide]
10 to 100 nM | Cc1cnc(Nc2cc(C)n(C)n2)nc1-c1c[nH]c2c(NC(=O)CN3CC[C@H](Oc4ccnc(NC5CCCC5)n4)C3)cccc12 [Example 209, (S)-2-(3-((2-(cyclopentylamino)pyrimidin-4-yl)oxy)pyrrolidin-1-yl)-N-(3-(2-((1,5-dimethyl-1H-pyrazol-3-yl)amino)-5-methylpyrimidin-4-yl)-1H-indol-7-yl)acetamide]
10 to 100 nM | Cc1cnc(Nc2cc(C)n(C)n2)nc1-c1c[nH]c2c(NC(=O)CN3CC[C@H](Oc4ccnc(NC5CCCCC5)n4)C3)cccc12 [Example 210, (S)-2-(3-((2-(cyclohexylamino)pyrimidin-4-yl)oxy)pyrrolidin-1-yl)-N-(3-(2-((1,5-dimethyl-1H-pyrazol-3-yl)amino)-5-methylpyrimidin-4-yl)-1H-indol-7-yl)acetamide]
< 10 nM | Cc1cnc(Nc2cc(C)n(C)n2)nc1-c1c[nH]c2c(NC(=O)CN3CC[C@H](Oc4ccnc(NC(C)C)n4)C3)cccc12 [Example 211, (S)-N-(3-(2-((1,5-dimethyl-1H-pyrazol-3-yl)amino)-5-methylpyrimidin-4-yl)-1H-indol-7-yl)-2-(3-((2-(isopropylamino)pyrimidin-4-yl)oxy)pyrrolidin-1-yl)acetamide]
< 10 nM | CCC(C)Nc1nccc(O[C@H]2CCN(CC(=O)Nc3cccc4c(-c5nc(Nc6cc(C)n(C)n6)ncc5C)c[nH]c34)C2)n1 (stereo partly drawn) [Example 212, 2-((3S)-3-((2-(sec-butylamino)pyrimidin-4-yl)oxy)pyrrolidin-1-yl)-N-(3-(2-((1,5-dimethyl-1H-pyrazol-3-yl)amino)-5-methylpyrimidin-4-yl)-1H-indol-7-yl)acetamide]
< 10 nM | Cc1cnc(Nc2cc(C)n(C)n2)nc1-c1c[nH]c2c(NC(=O)CN3CC[C@H](Oc4ccnc(NCC5CC5)n4)C3)cccc12 [Example 213, (S)-2-(3-((2-((cyclopropylmethyl)amino)pyrimidin-4-yl)oxy)pyrrolidin-1-yl)-N-(3-(2-((1,5-dimethyl-1H-pyrazol-3-yl)amino)-5-methylpyrimidin-4-yl)-1H-indol-7-yl)acetamide]
< 10 nM | Cc1cnc(Nc2cc(C)n(C)n2)nc1-c1c[nH]c2c(NC(=O)CN3CC[C@H](Oc4ccnc(NCc5ccccc5)n4)C3)cccc12 [Example 214, (S)-2-(3-((2-(benzylamino)pyrimidin-4-yl)oxy)pyrrolidin-1-yl)-N-(3-(2-((1,5-dimethyl-1H-pyrazol-3-yl)amino)-5-methylpyrimidin-4-yl)-1H-indol-7-yl)acetamide]
< 10 nM | Cc1cnc(Nc2cc(C)n(C)n2)nc1-c1c[nH]c2c(NC(=O)CN3CC[C@H](Oc4ccnc(NCCO)n4)C3)cccc12 [Example 215, (S)-N-(3-(2-((1,5-dimethyl-1H-pyrazol-3-yl)amino)-5-methylpyrimidin-4-yl)-1H-indol-7-yl)-2-(3-((2-((2-hydroxyethyl)amino)pyrimidin-4-yl)oxy)pyrrolidin-1-yl)acetamide]
< 10 nM | COCCNc1nccc(O[C@H]2CCN(CC(=O)Nc3cccc4c(-c5nc(Nc6cc(C)n(C)n6)ncc5C)c[nH]c34)C2)n1 [Example 216, (S)-N-(3-(2-((1,5-dimethyl-1H-pyrazol-3-yl)amino)-5-methylpyrimidin-4-yl)-1H-indol-7-yl)-2-(3-((2-((2-methoxyethyl)amino)pyrimidin-4-yl)oxy)pyrrolidin-1-yl)acetamide]
< 10 nM | Cc1cnc(Nc2cc(C)n(C)n2)nc1-c1c[nH]c2c(NC(=O)CN3CC[C@H](Oc4ccnc(NCCN(C)C)n4)C3)cccc12 [Example 217, (S)-N-(3-(2-((1,5-dimethyl-1H-pyrazol-3-yl)amino)-5-methylpyrimidin-4-yl)-1H-indol-7-yl)-2-(3-((2-((2-(dimethylamino)ethyl)amino)pyrimidin-4-yl)oxy)pyrrolidin-1-yl)acetamide]
< 10 nM | Cc1cnc(Nc2cc(C)n(C)n2)nc1-c1c[nH]c2c(NC(=O)CN3CC[C@H](Oc4ccnc(NCCCN(C)C)n4)C3)cccc12 [Example 218, (S)-N-(3-(2-((1,5-dimethyl-1H-pyrazol-3-yl)amino)-5-methylpyrimidin-4-yl)-1H-indol-7-yl)-2-(3-((2-((3-(dimethylamino)propyl)amino)pyrimidin-4-yl)oxy)pyrrolidin-1-yl)acetamide]
< 10 nM | CONc1nccc(O[C@H]2CCN(CC(=O)Nc3cccc4c(-c5nc(Nc6cc(C)n(C)n6)ncc5C)c[nH]c34)C2)n1 [Example 219, (S)-N-(3-(2-((1,5-dimethyl-1H-pyrazol-3-yl)amino)-5-methylpyrimidin-4-yl)-1H-indol-7-yl)-2-(3-((2-(methoxyamino)pyrimidin-4-yl)oxy)pyrrolidin-1-yl)acetamide]
10 to 100 nM | Cc1cnc(Nc2cc(C)n(C)n2)nc1-c1c[nH]c2c(NC(=O)CN3CC[C@H](Oc4ccnc(N(C)C)n4)C3)cccc12 [Example 220, (S)-N-(3-(2-((1,5-dimethyl-1H-pyrazol-3-yl)amino)-5-methylpyrimidin-4-yl)-1H-indol-7-yl)-2-(3-((2-(dimethylamino)pyrimidin-4-yl)oxy)pyrrolidin-1-yl)acetamide]
100 to 1000 nM | Cc1cnc(Nc2cc(C)n(C)n2)nc1-c1c[nH]c2c(NC(=O)CN3CC[C@H](Oc4ccnc(N(C)Cc5ccccc5)n4)C3)cccc12 [Example 221, (S)-2-(3-((2-(benzyl(methyl)amino)pyrimidin-4-yl)oxy)pyrrolidin-1-yl)-N-(3-(2-((1,5-dimethyl-1H-pyrazol-3-yl)amino)-5-methylpyrimidin-4-yl)-1H-indol-7-yl)acetamide]
10 to 100 nM | Cc1cnc(Nc2cc(C)n(C)n2)nc1-c1c[nH]c2c(NC(=O)CN3CC[C@H](Oc4ccnc(N5CCCC5)n4)C3)cccc12 [Example 222, (S)-N-(3-(2-((1,5-dimethyl-1H-pyrazol-3-yl)amino)-5-methylpyrimidin-4-yl)-1H-indol-7-yl)-2-(3-((2-(pyrrolidin-t-yl)pyrimidin-4-yl)oxy)pyrrolidin-1-yl)acetamide]
10 to 100 nM | Cc1cnc(Nc2cc(C)n(C)n2)nc1-c1c[nH]c2c(NC(=O)CN3CC[C@H](Oc4ccnc(N5CCCCC5)n4)C3)cccc12 [Example 223, (S)-N-(3-(2-((1,5-dimethyl-1H-pyrazol-3-yl)amino)-5-methylpyrimidin-4-yl)-1H-indol-7-yl)-2-(3-((2-(piperidin-1-yl)pyrimidin-4-yl)oxy)pyrrolidin-1-yl)acetamide]
< 10 nM | Cc1cnc(Nc2cc(C)n(C)n2)nc1-c1c[nH]c2c(NC(=O)CN3CC[C@H](Oc4ccnc(N5CCOCC5)n4)C3)cccc12 [Example 224, (S)-N-(3-(2-((1,5-dimethyl-1H-pyrazol-3-yl)amino)-5-methylpyrimidin-4-yl)-1H-indol-7-yl)-2-(3-((2-morpholinopyrimidin-4-yl)oxy)pyrrolidin-1-yl)acetamide]
< 10 nM | Cc1cnc(Nc2cc(C)n(C)n2)nc1-c1c[nH]c2c(NC(=O)CN3CC[C@H](Oc4ccnc(N5CCN(C)CC5)n4)C3)cccc12 [Example 225, (S)-N-(3-(2-((1,5-dimethyl-1H-pyrazol-3-yl)amino)-5-methylpyrimidin-4-yl)-1H-indol-7-yl)-2-(3-((2-(4-methylpiperazin-1-yl)pyrimidin-4-yl)oxy)pyrrolidin-1-yl)acetamide]
< 10 nM | Cc1cnc(Nc2cc(C)n(C)n2)nc1-c1c[nH]c2c(NC(=O)CN3CC[C@H](Oc4nc(N)ncc4F)C3)cccc12 [Example 226, (S)-2-(3-((2-amino-5-fluoropyrimidin-4-yl)oxy)pyrrolidin-1-yl)-N-(3-(2-((1,5-dimethyl-1H-pyrazol-3-yl)amino)-5-methylpyrimidin-4-yl)-1H-indol-7-yl)acetamide]
< 10 nM | Cc1cnc(Nc2cc(C)n(C)n2)nc1-c1c[nH]c2c(NC(=O)CN3CC[C@H](Oc4nc(NC5CC5)ncc4F)C3)cccc12 [Example 227, (S)-2-(3-((2-(cyclopropylamino)-5-fluoropyrimidin-4-yl)oxy)pyrrolidin-1-yl)-N-(3-(2-((1,5-dimethyl-1H-pyrazol-3-yl)amino)-5-methylpyrimidin-4-yl)-1H-indol-7-yl)acetamide]
10 to 100 nM | Cc1cnc(Nc2cc(C)n(C)n2)nc1-c1c[nH]c2c(NC(=O)CN3CC[C@H](Oc4nc(NC5CCCCC5)ncc4F)C3)cccc12 [Example 228, (S)-2-(3-((2-(cyclohexylamino)-5-fluoropyrimidin-4-yl)oxy)pyrrolidin-1-yl)-N-(3-(2-((1,5-dimethyl-1H-pyrazol-3-yl)amino)-5-methylpyrimidin-4-yl)-1H-indol-7-yl)acetamide]
